How the values were obtained:
[1] = pKa of the ionizable lipid measured in the LNP (TNS pKa); assay type: physicochemical; conditions: for pKa: lipid nanoparticle (LNP) containing the ionizable lipid; for DpKa: ACD pKa versus TNS pKa
From the text: In some embodiments, the “LNP lipids” are MC3, DLin, and/or KC2 as shown below. The table highlights the pKa of the ionizable lipid measured in the LNP (TNS pKa) versus the pKa in aqueous medium predicated by a commercial software ACDLabs Percepta.:
In one embodiment, the amount of nucleic acid is represented by the LNP mole ratio of the amine on the ionizable lipid to the phosphate groups on the nucleic acid backbone and is typically about 3 to about 6. In one embodiment, the pKa of the LNP is in the about 6 to about 7 range corresponding to the pH in the early endosome. A link between the pKa of ionizable lipid in the LNP and gene silencing efficiency has shown that an LNP pKa in the range of about 6 to about 7 produced more silencing for the ionizable lipid DLinDMA and was associated with promoting lipid structures that could disrupt the membrane of the endosome. The pKa of the LNP may be measured using the pH-dependence of fluorescence enhancement of the anionic dye TNS.

HEK293 cells = experiment: Firefly Luciferase Assay for mRNA Delivery Efficiency; assay type: cell-based; conditions: for potency when sodium acetate concentration was reduced from 60 mM to 25 mM / potency when mixed at the higher concentration 1.5 mg/ml vs the lower concentration 0.25 mg/ml: Example 12; for potency when mixed at the higher concentration 1.5 mg/ml vs the lower concentration 0.25 mg/ml / LNP potency at the higher versus lower mixing concentration: same dose; for LNP potency at the higher versus lower mixing concentration: NP 4, sodium acetate pH 4
Experimental: Summary: LNPs were formulated using total lipid concentration of 6 to 27 mM comprised of KC2/DSPC/Cholesterol/PEG-DMG (50:10:38.5:1.5 mol %). Each one of the lipids were solubilized in ethanol until a clear solution was observed. The four lipids were combined to get 50 mM total lipid concentration (25/5/19.25/0.75 mM respectively), then serial dilutions were done to reach 6 to 27 mM. […] Purified mRNA was ethanol precipitated, washed and resuspended in nuclease-free water to reach concentrations of 1 mg/mL. […] 16 μl Lipid Mix and 341 mRNA solution were mixed on Setting 3 and ejected into 48 μl 1×DPBS pH 7.4. The formed LNPS were then diluted into an additional 96 μl 1×DPBS pH 7.4. LNPs were then dialyzed against 1×DPBS pH 7.4 for 4×1 hr. LNPs were then diluted so that 32 ul contained 200 ng and 12K HEK293 cells were transfected with the same 200 ng dose but manufactured at different concentrations in the microfluidic mixer.
A. Firefly Luciferase Assay for mRNA Delivery Efficiency. After 24 hours of transfection, transfected cells were conditioned to room temperature for 30 minutes prior the Firefly Luciferase Assay. Quantilum Recombinant Luciferase standard curve was prepared in 10% EMEM in 5-fold serial dilutions. 50 ul of each standard point from the range of 3.9×10^−5 mg/ml to 4.88×10^−3 mg/ml were included in the microplate as a positive enzyme activity control (data not shown) to maintain a linearity of 10^7 RLU/mg/ml. The ONE-Glo substrate, previously conditioned to room temperature for at least 4 hours, was added to each untransfected, transfected and Quantilum wells in a ratio 1:1. Assay plates were incubated for 3 minutes in darkness and immediately introduced into the Cytation 5 Cell Imaging Multi-Mode Reader (Biotek) to read luminescence.
Each one of the lipids were solubilized in ethanol until a clear solution was observed. […] To prepare 75 mM total lipid concentration (37.5/7.5/28.88/1.13 mM respectively), KC2/DL-ADDE-C2C2-PipZ/BODD-ADDE-C2C4-PipZ and Cholesterol were mixed first, same for DSPC and PEG to solubilize both solutions in ethanol before combining them to reach 75 mM. […] Purified mRNA was ethanol precipitated, washed and resuspended in nuclease-free water to reach concentrations of 4.4 mg/ml. […] 16 μl Lipid Mix and 341 mRNA solution were mixed on Setting 3 and ejected into 48 μl 1×DPBS pH 7.4. The formed LNPS were then diluted into an additional 96 μl 1×DPBS pH 7.4. LNPs were then dialyzed against 1×DPBS pH 7.4 for 4×1 hr. LNPs were then diluted so that 32 ul contained 25-200 ng and 12K HEK293 cells were transfected with the same dose but manufactured at different concentrations in the microfluidic mixer.

mice = experiment: In vivo and ex vivo Firefly Luciferase expression (IVIS); conditions: for higher potency in vivo of buffer-free assembly compared to using a buffer: by IVIS, high lipid and mRNA mixing concentrations, 0.25 protons per ionizable lipid, NP 4
Experimental: C: In vivo Firefly Luciferase expression in IM administration. 5 ug of encapsulated mRNA were injected in mice in intramuscular (I.M.), intradermal (ID.) and intravenous (I.V.) injections. ROIs were calculated using the IVIS system. Imaging were performed at 4 and 20 hours.
C: In vivo Firefly Luciferase expression in IM administration. 0.5-5 ug of total mRNA was injected in mice in intramuscular (I.M.) injections. Luciferin was administrated intraperitoneally at 4 hours post-injection and luciferase expression monitored by live animal imaging at 4 and 24 hours. ROIs were calculated using the IVIS system.
D: In vivo and ex vivo Firefly Luciferase expression in IM administration for LNPs mixed at 1.5 mg/ml. 1 ug of total mRNA was injected in mice in intramuscular (I.M.) injections. Luciferin was administrated intraperitoneally at 4 hours post-injection and luciferase expression monitored by live animal imaging at 4 hours. ROIs were calculated using the IVIS system. For Ex Vivo, organs were extracted and imaged immediately after In Vivo imaging.
E: In vivo and ex vivo Firefly Luciferase expression in IV administration for LNPs mixed at 1.5 mg/ml. 1 ug of total mRNA was injected in mice in […] (I.V.) injections. Luciferin was administrated intraperitoneally at 4 hours post-injection and luciferase expression monitored by live animal imaging at 4 hours. ROIs were calculated using the IVIS system. For Ex Vivo, organs were extracted and imaged immediately after In Vivo imaging.

SARS-CoV-2 = experiment: In vivo protection against viral challenge; conditions: SARS-CoV-2 immunogen mRNA, mice, I.M.
Experimental: Summary: LNPs were formulated using total lipid concentration of 10-75 mM comprised of several ionizable/DSPC/Cholesterol/PEG-DMG (47-50:10-13:37-38.5:1.5-2 mol %). Each one of the lipids were solubilized in ethanol until a clear solution was observed. The four lipids were combined to get 75 mM total lipid concentration then serial dilutions were done to reach 10 mM. Codon optimized 2019-nCoV Wuhan S-2P (Covid) sequence was cloned into an mRNA plasmid (optimized 3′ and 5′ UTR and containing a 101 polyA tail (SEQ ID NO: 4)) for co-transcriptional capping, in vitro transcribed using N1 methyl pseudouridine modified nucleoside and cellulose purified to remove dsRNA. Purified mRNA was ethanol precipitated, washed and resuspended in nuclease-free water to reach concentrations of 5.5 mg/ml. […] 16 μl Lipid Mix and 32 μl mRNA solution were mixed on Setting 3 and ejected into 48 μl 1×DPBS pH 7.4. The formed LNPS were then diluted into an additional 96 μl 1×DPBS pH 7.4. LNPs were then dialyzed against 1×DPBS pH 7.4 for 4×1 hr. LNPs were then diluted so that 32 ul contained 25-200 ng and 12K HEK293 cells were transfected with the same dose but manufactured at different concentrations in the microfluidic mixer.
A: In vivo protection against viral challenge—Survival proportion, Weight and Temperature in Challenge model. […]

[2] = pKa of the ionizable lipid measured in the LNP; published ionizable lipids; cited from earlier work

Compound	pKa [1]	potency when sodium acetate concentration was reduced from 60 mM to 25 mM (HEK293 cells)	potency when mixed at the higher concentration 1.5 mg/ml vs the lower concentration 0.25 mg/ml (HEK293 cells)	potency on increasing pH from 4 to 5 (HEK293 cells; Example 13, 1.5 mg/ml mRNA in 25 mM NaOAc)	LNP potency at the higher versus lower mixing concentration (HEK293 cells; in vitro)	higher potency in vivo of buffer-free assembly compared to using a buffer (mice; IM administration) [×]	higher potency in vivo of buffer-free assembly compared to using a buffer (mice; IV administration) [×]	Protective against lethal challenge (SARS-CoV-2; 0.25 ug) [%]	DpKa [1]	LNP potency increase when reducing sodium acetate from 50 mM to 25 mM (HEK293 cells; 1.5 mg/ml of mRNA, pH 4, NP 4) [%]	delivery efficiency at the same dose with increased mixing concentration (HEK293 cells; in vitro, KC2/DSPC/Cholesterol/PEG-DMG LNPs, NP 4)	LNP potency increase when reducing sodium acetate concentration from 25 mM to 10 mM (HEK293 cells; mRNA concentration of 0.25 mg/ml, pH 4, NP 4) [×]	delivery efficiency at the same dose with increased mixing concentration (mice; in vivo, 5 ug of encapsulated mRNA, lipids 5 to 100 mM, mRNA 0.1 to 2 mg/ml)	TNS pKa [2]	Protective against lethal challenge (SARS-CoV-2; 0.5 ug) [%]
CCCCC/C=C\C/C=C\CCCCCCCCOC(=O)CCN(CCC(=O)OCCCCCCCC/C=C\C/C=C\CCCCC)CCN1CCN(C)CC1 (racemic) [DL-C2/C2-PipZ]	~7.5	did not show either effect	did not	–	–	–	–	–	–	–	–	–	–	–	–
CCCCCCCCC(CCCCCCCC)COC(=O)CCN(CCCCN1CCN(C)CC1)CCC(=O)OCC(CCCCCCCC)CCCCCCCC [BOD-C2/C4-PipZ]	~6.5	increased potency	large increase in potency	increases potency	LNP potency increases	3	3	100	–	–	–	–	–	–	–
CCCCC/C=C\C/C=C\CCCCCCCCOCC(CN(C)C)OCCCCCCCC/C=C\C/C=C\CCCCC (centres unmarked) [DLin]	–	–	–	–	–	–	–	–	1.8	–	–	–	–	–	–
CCCCC/C=C\C/C=C\CCCCCCCCC1(CCCCCCCC/C=C\C/C=C\CCCCC)OCC(CCN(C)C)O1 (centres unmarked) [KC2]	~6.5	increased potency	large increase in potency	–	LNP potency increases	–	–	–	2.6	44	increased delivery efficiency at the same dose only at the lowest NaOAc concentration of 50 mM	2.2	increased delivery efficiency	6.7	–
CCCCC/C=C\C/C=C\CCCCCCCCC(CCCCCCCC/C=C\C/C=C\CCCCC)OC(=O)CCCN(C)C [MC3]	~6.5	increased potency	large increase in potency	–	LNP potency increases	–	–	–	3	–	–	–	–	6.4	100

From patent US12458604B2, “Methods of lipid nanoparticle manufacture and compositions derived therefrom” (George Mason Research Foundation, Inc., priority 2020, dated 2025)
